Data: the kinase profiling compilation of Christmann-Franck et al. (2016)

Key:
Assay in all cases: KINOMEscan competition binding
Details in all cases: compound 10.0 µM
MARK3 (human) = MARK3 (human) (UniProt P27448)
CSF1R (human) = CSF1R (human) (UniProt P07333)
[1] = target: JAK1 JH2 pseudokinase (human) (UniProt P23458)
MKNK2 (human) = MKNK2 (human) (UniProt Q9HBH9)
MLTK (human) = MLTK (human) (UniProt Q9NYL2)
IKBKE (human) = IKBKE (human) (UniProt Q14164)
[2] = target: JAK2 JH1 catalytic (human) (UniProt O60674)
ITK (human) = ITK (human) (UniProt Q08881)
MYLK2 (human) = MYLK2 (human) (UniProt Q9H1R3)
[3] = target: JAK3 JH1 catalytic (human) (UniProt P52333)
PRKACB (human) = PRKACB (human) (UniProt P22694)
EPHB3 (human) = EPHB3 (human) (UniProt P54753)
MAP4K5 (human) = MAP4K5 (human) (UniProt Q9Y4K4)
FLT1 (human) = FLT1 (human) (UniProt P17948)
MAP4K3 (human) = MAP4K3 (human) (UniProt Q8IVH8)
CAMK1G (human) = CAMK1G (human) (UniProt Q96NX5)
Sequence of CAMK1G (human) (Q96NX5 whole entry, looked up): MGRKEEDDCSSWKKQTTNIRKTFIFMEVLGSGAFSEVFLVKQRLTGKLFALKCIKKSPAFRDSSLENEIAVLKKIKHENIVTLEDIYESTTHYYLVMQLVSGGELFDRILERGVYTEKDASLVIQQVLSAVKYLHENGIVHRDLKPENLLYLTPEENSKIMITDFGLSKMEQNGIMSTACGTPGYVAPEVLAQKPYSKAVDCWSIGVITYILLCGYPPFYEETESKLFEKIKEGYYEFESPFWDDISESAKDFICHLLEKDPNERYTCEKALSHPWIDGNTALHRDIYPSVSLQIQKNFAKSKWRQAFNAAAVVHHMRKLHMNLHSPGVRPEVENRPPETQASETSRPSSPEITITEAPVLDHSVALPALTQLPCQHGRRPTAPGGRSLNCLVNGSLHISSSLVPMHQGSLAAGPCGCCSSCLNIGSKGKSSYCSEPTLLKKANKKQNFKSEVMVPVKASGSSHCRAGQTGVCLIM

PRKAA2 (human) = PRKAA2 (human) (UniProt P54646)
Sequence of PRKAA2 (human) (P54646 whole entry, looked up): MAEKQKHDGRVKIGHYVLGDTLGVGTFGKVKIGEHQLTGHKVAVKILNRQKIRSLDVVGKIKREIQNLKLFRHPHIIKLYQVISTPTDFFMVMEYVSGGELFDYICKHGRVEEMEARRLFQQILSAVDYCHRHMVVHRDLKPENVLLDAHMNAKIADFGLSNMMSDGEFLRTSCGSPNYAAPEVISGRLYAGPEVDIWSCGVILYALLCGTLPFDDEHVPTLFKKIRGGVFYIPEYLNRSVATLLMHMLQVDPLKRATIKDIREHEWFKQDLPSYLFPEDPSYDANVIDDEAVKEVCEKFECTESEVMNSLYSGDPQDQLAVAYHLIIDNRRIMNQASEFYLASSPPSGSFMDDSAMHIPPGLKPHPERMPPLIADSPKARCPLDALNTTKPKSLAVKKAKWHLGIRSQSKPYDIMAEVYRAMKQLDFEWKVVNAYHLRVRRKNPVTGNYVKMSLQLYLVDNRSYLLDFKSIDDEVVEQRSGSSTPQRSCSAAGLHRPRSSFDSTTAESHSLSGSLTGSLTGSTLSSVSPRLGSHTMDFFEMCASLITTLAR

EPHA3 (human) = EPHA3 (human) (UniProt P29320)
STK10 (human) = STK10 (human) (UniProt O94804)
DDR2 (human) = DDR2 (human) (UniProt Q16832)
Sequence of DDR2 (human) (Q16832 whole entry, looked up): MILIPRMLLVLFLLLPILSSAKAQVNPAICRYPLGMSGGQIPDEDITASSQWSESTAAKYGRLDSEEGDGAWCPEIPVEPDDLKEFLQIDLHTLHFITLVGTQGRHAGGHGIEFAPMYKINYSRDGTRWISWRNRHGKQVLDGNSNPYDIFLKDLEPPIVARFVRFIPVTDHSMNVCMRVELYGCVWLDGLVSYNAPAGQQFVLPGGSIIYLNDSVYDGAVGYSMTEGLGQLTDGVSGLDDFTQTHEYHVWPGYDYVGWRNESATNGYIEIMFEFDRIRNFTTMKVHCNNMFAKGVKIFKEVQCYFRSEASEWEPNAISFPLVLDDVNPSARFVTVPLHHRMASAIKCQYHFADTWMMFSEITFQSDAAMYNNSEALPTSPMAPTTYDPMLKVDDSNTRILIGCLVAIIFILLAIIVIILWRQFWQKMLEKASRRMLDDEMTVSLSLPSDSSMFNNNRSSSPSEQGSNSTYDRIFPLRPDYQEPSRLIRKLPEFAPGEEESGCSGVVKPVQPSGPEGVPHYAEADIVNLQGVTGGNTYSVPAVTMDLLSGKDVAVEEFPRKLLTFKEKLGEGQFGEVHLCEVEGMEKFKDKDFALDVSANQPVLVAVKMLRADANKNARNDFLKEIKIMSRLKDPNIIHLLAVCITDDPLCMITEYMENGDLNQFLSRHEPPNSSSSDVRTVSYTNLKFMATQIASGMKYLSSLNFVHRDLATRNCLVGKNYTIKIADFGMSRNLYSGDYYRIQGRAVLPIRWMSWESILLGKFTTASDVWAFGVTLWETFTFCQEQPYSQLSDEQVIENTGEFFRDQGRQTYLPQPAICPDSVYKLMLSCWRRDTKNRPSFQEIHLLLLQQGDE

[4] = system: EGFR (human), P00533 [752-759 del]
TXK (human) = TXK (human) (UniProt P42681)
TAOK3 (human) = TAOK3 (human) (UniProt Q9H2K8)
WEE2 (human) = WEE2 (human) (UniProt P0C1S8)
[5] = system: EGFR (human), P00533 [747-751 del / S ins]
RPS6KA4 KD1 (human) = RPS6KA4 KD1 (human) (UniProt O75676)
Sequence of RPS6KA4 KD1 (human) (O75676 whole entry, looked up): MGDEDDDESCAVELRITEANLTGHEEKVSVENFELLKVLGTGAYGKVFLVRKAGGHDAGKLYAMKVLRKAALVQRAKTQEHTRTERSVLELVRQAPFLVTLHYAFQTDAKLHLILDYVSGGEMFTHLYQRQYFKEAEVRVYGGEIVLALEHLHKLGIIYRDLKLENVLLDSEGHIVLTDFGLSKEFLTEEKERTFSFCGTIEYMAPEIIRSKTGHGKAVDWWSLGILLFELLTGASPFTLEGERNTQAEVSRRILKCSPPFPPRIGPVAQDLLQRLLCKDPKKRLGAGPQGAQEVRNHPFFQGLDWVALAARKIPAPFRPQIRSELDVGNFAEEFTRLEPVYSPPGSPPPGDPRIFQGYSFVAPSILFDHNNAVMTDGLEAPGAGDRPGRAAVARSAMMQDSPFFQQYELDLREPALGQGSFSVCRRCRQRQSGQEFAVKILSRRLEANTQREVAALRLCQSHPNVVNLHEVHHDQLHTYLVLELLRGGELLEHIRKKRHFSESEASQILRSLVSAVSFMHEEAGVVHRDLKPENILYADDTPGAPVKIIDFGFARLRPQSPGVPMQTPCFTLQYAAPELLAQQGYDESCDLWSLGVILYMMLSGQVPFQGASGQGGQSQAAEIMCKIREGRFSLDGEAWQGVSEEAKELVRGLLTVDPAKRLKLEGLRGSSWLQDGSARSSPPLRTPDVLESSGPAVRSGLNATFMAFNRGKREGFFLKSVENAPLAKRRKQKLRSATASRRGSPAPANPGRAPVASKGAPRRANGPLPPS

[6] = system: FLT3 (human), P36888 [D835H]
SRC (human) = SRC (human) (UniProt P12931)
MAPK1 (human) = MAPK1 (human) (UniProt P28482)
Sequence of MAPK1 (human) (P28482 whole entry, looked up): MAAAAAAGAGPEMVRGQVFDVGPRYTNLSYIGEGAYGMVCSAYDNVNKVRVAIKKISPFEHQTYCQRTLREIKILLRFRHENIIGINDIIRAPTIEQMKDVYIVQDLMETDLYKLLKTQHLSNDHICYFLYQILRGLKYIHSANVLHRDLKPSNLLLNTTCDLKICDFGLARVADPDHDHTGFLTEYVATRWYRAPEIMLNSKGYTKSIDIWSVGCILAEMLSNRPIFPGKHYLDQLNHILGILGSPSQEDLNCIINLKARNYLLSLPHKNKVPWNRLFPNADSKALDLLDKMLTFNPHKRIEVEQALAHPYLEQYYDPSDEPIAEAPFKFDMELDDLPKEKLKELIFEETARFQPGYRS

AKT1 (human) = AKT1 (human) (UniProt P31749)
Sequence of AKT1 (human) (P31749 whole entry, looked up): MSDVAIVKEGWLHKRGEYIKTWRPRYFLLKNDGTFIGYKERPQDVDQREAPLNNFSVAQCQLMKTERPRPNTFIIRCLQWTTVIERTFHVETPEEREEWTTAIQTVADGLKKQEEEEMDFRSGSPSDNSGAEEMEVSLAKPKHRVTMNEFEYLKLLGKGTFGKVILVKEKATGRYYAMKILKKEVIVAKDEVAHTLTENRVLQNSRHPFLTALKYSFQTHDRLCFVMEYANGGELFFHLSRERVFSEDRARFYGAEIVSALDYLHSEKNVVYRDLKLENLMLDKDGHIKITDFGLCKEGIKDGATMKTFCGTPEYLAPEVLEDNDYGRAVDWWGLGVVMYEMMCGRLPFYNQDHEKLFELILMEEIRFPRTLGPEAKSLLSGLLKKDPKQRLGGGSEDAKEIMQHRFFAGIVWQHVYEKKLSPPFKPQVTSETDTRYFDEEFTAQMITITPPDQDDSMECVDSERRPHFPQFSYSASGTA

PIM3 (human) = PIM3 (human) (UniProt Q86V86)
LIMK2 (human) = LIMK2 (human) (UniProt P53671)
PRKD1 (human) = PRKD1 (human) (UniProt Q15139)
TAOK1 (human) = TAOK1 (human) (UniProt Q7L7X3)
TGFBR1 (human) = TGFBR1 (human) (UniProt P36897)
MAP2K2 (human) = MAP2K2 (human) (UniProt P36507)

Sequence of MLTK (human) (Q9NYL2 whole entry, looked up): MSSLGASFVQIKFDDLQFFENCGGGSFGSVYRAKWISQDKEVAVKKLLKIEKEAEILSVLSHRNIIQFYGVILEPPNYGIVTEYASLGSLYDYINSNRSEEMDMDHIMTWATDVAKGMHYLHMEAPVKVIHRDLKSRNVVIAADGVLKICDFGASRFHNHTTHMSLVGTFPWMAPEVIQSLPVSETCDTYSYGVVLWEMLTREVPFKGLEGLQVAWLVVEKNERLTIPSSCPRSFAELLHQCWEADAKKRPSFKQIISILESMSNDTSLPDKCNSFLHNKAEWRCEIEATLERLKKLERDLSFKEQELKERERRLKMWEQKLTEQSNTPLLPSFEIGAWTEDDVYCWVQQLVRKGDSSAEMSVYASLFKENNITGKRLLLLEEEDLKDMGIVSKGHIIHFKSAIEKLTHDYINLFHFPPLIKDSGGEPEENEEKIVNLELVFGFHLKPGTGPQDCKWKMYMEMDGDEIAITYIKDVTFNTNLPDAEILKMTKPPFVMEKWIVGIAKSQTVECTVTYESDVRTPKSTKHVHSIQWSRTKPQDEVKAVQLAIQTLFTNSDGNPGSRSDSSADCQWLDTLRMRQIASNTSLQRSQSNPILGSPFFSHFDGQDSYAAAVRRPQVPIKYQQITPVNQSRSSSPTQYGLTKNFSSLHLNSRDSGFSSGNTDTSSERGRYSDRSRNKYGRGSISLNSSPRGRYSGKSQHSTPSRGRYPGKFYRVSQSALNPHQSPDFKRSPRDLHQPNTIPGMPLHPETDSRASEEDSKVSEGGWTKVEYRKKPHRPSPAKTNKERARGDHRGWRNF
Sequence of MARK3 (human) (P27448 whole entry, looked up): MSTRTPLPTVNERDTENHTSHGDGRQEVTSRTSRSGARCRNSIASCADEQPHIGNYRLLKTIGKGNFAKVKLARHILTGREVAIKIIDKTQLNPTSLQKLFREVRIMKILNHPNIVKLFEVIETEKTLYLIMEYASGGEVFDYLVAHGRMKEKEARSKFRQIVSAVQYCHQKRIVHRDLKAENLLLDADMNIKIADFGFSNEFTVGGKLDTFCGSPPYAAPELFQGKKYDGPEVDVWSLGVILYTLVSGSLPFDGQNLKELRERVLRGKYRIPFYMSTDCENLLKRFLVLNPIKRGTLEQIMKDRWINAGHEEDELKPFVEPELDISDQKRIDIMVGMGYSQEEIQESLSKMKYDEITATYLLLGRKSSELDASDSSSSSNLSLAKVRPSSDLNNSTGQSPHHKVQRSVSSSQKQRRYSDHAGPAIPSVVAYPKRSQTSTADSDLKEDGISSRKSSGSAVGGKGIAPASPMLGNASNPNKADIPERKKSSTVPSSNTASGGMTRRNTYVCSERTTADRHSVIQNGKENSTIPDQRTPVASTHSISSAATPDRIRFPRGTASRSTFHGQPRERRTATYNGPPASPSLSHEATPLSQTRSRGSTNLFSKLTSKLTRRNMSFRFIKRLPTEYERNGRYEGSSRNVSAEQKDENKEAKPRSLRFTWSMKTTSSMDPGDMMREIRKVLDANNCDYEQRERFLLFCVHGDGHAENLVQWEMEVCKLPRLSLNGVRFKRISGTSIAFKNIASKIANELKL

Row | Compound | kinase still bound, per cent of control (MARK3 (human)) [%] | kinase still bound, per cent of control (CSF1R (human)) [%] | kinase still bound, per cent of control [1] [%] | kinase still bound, per cent of control (MKNK2 (human)) [%] | kinase still bound, per cent of control (MLTK (human)) [%] | kinase still bound, per cent of control (IKBKE (human)) [%] | kinase still bound, per cent of control [2] [%] | kinase still bound, per cent of control (ITK (human)) [%] | kinase still bound, per cent of control (MYLK2 (human)) [%] | kinase still bound, per cent of control [3] [%] | kinase still bound, per cent of control (PRKACB (human)) [%] | kinase still bound, per cent of control (EPHB3 (human)) [%] | kinase still bound, per cent of control (FLT1 (human)) [%] | kinase still bound, per cent of control (MAP4K3 (human)) [%] | kinase still bound, per cent of control (CAMK1G (human)) [%] | kinase still bound, per cent of control (PRKAA2 (human)) [%] | kinase still bound, per cent of control (EPHA3 (human)) [%] | kinase still bound, per cent of control (STK10 (human)) [%] | kinase still bound, per cent of control (DDR2 (human)) [%] | kinase still bound, per cent of control (TXK (human)) [%] | also measured
1 | C=CC(=O)Nc1ccc(CN(C(=O)Nc2c(Cl)c(OC)cc(OC)c2Cl)c2cc(Nc3ccc(N4CCN(C)CC4)cc3)ncn2)cc1 | 100 | 0 | 100 | 100 | 100 | 100 | 100 | 16 | 100 | 0.15 | 100 | 100 | 0.3 | 7.4 | 100 | 100 | 100 | 0.1 | 100 | 16 | kinase still bound, per cent of control (MAP4K5 (human)): 2.3%; kinase still bound, per cent of control [4]: 2.3%; kinase still bound, per cent of control (TAOK3 (human)): 0.9%; kinase still bound, per cent of control (WEE2 (human)): 100%; kinase still bound, per cent of control [5]: 0.65%; kinase still bound, per cent of control (RPS6KA4 KD1 (human)): 100%; kinase still bound, per cent of control [6]: 16%; kinase still bound, per cent of control (SRC (human)): 6.6%; kinase still bound, per cent of control (MAPK1 (human)): 100%; kinase still bound, per cent of control (AKT1 (human)): 100%; kinase still bound, per cent of control (PIM3 (human)): 100%; kinase still bound, per cent of control (LIMK2 (human)): 100%; kinase still bound, per cent of control (PRKD1 (human)): 100%; kinase still bound, per cent of control (TAOK1 (human)): 0.8%; kinase still bound, per cent of control (TGFBR1 (human)): 100%; kinase still bound, per cent of control (MAP2K2 (human)): 100%
2 | CCN(CC)CCCCNc1ncc2cc(-c3cc(OC)cc(OC)c3)c(NC(=O)NC(C)(C)C)nc2n1 | 100 | 6.6 | 100 | 100 | 100 | 100 | 100 | 100 | 100 | 100 | 100 | 100 | 8 | 100 | 100 | 100 | 100 | 100 | 100 | 100 | kinase still bound, per cent of control (MAP4K5 (human)): 100%; kinase still bound, per cent of control (RPS6KA4 KD1 (human)): 100%; kinase still bound, per cent of control [6]: 100%; kinase still bound, per cent of control (SRC (human)): 100%; kinase still bound, per cent of control (MAPK1 (human)): 100%; kinase still bound, per cent of control (AKT1 (human)): 100%; kinase still bound, per cent of control (PIM3 (human)): 100%; kinase still bound, per cent of control (LIMK2 (human)): 100%; kinase still bound, per cent of control (PRKD1 (human)): 100%; kinase still bound, per cent of control (TGFBR1 (human)): 100%; kinase still bound, per cent of control (MAP2K2 (human)): 100%
3 | Cc1n[nH]c2ccc(-c3cncc(OC[C@@H](N)Cc4c[nH]c5ccccc45)c3)cc12 | 9.4 | 100 | 100 | 13 | 100 | 24 | 100 | 100 | 100 | 32 | 0.45 | 100 | 100 | 9.5 | 100 | 100 | 100 | 100 | 100 | 100 | kinase still bound, per cent of control (TAOK3 (human)): 0.1%; kinase still bound, per cent of control (WEE2 (human)): 100%; kinase still bound, per cent of control (RPS6KA4 KD1 (human)): 100%; kinase still bound, per cent of control [6]: 5%; kinase still bound, per cent of control (SRC (human)): 100%; kinase still bound, per cent of control (MAPK1 (human)): 100%; kinase still bound, per cent of control (AKT1 (human)): 1.8%; kinase still bound, per cent of control (PIM3 (human)): 0.75%; kinase still bound, per cent of control (LIMK2 (human)): 100%; kinase still bound, per cent of control (PRKD1 (human)): 2%; kinase still bound, per cent of control (TAOK1 (human)): 0.05%; kinase still bound, per cent of control (TGFBR1 (human)): 100%; kinase still bound, per cent of control (MAP2K2 (human)): 100%
